Laboratory results: patent US8168384B2, “Non-thiopurine methyltransferase related effects in 6-mercaptopurine therapy” (Guy's and St. Thomas' NHS Foundation Trust, priority 2007, dated 2012)

Assays:
[1] = remaining non-/partial responder patients
[2] = Cohort of patients starting azathioprine therapy: clinical response, side-effects and association with XDH, MOCOS and AOX SNP genotype; conditions: cohort of 168 patients starting azathioprine therapy

difference in TGN levels between wild-type and heterozygous for the AOX SNP [1]: no significant difference
SMILES: Cn1cnc([N+](=O)[O-])c1Sc1ncnc2nc[nH]c12 [azathioprine, 6-(1-methyl-4-nitro-5-imidazolylthio) purine]
partial responders [2]: 7 patients
patients deemed to have no response to azathioprine [2]: 35 patients
